Assays:
caspase-1 = caspase-1 (Homo sapiens, UniProt P29466); experiment: Ex vivo stimulation study: active caspase-1 in CD4 T cells after whole blood incubation with caspase inhibitors (Example 9); format: cell-based; details: whole blood incubated with inhibitor, 24 hrs later with or without nigericin stimulation
[1] = tested on: PBMCs isolated from COVID-19 patient samples; experiment: "Red ring" contaminating RBC layer in PBMC preparation; format: cell-based, human; details: 1 micromolar, room temperature, 17 hours
Text: One of the observations made during the preparation of peripheral blood mononuclear cells (PBMC) for some of the experiments described herein was the presence of a contaminating red blood cell (RBC) layer in the PBMC layer, which was referred to as a “red ring”. This “red ring” was present in all COVID-19 patient samples, with no difference between critically ill patients and those who were only on supportive care outside the ICU setting (see FIG. 12A).
When PBMCs isolated from COVID-19 patient samples were incubated with Emricasan (1 micromolar) at room temperature for 17 hours, a decrease in the “red ring” was observed.

Caspase 1 = biological target: T1, Caspase 1 (Homo sapiens, UniProt P29466); experiment: FLICA flow cytometry of active caspase-1 in PBMCs from Emricasan-treated COVID-19(+) whole blood (Example 7); format: cell-based; details: 1 μM, 17 hours (overnight) at room temperature on a rocker; 3 samples from COVID-19 patients
T1 sequence (P29466 120-297 limits assumed): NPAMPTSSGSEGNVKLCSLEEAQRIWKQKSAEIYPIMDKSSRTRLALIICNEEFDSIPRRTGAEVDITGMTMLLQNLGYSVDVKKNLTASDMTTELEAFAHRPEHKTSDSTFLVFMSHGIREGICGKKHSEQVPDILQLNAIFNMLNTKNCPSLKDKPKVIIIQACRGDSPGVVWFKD
T1 sequence (P29466 317-404 limits assumed): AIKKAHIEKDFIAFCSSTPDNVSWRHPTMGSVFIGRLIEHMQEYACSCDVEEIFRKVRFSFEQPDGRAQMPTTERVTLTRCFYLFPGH

caspase-3 = biological target: T2, caspase-3 (Homo sapiens, UniProt P42574); experiment: Caspase-3 in red blood cells incubated with patient plasma; format: cell-based
T2 construct: EMR suppressed the caspase-3 up-regulation in the COVID-19 plasma incubated samples; endogenous in cells; host or cells: red blood cells of healthy subjects incubated with patient plasma
T2 sequence (P42574 29-277): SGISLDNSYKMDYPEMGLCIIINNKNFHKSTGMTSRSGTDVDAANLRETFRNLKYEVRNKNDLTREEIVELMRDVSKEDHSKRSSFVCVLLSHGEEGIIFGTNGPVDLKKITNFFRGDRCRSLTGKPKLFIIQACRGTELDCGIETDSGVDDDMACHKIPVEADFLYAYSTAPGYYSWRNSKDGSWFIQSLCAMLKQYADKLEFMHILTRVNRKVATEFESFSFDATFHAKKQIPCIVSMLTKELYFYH

mild COVID-19 = experiment: Phase 1 double-blinded placebo-controlled safety and tolerability study in mild-COVID-19 outpatients; format: in vivo, human
Protocol: A double-blinded, placebo-controlled randomized safety and tolerability study (1:1 active:placebo) was performed in a number symptomatic outpatient mild-COVID-19 patients receiving standard of care therapy. A total of 13 patients were enrolled at a single site in New York City. Treatment involved administering Emricasan (EMR) (or placebo) at 25 mg BID dosing for 14 days, with follow-up for an additional month. […] This study was thus designed to evaluate safety and tolerability, with the primary endpoint being the difference, if any, between treatment-related adverse events (AEs), including severe adverse events (SAEs), if any, in the active (EMR) and placebo groups through day 14. The pharmacokinetics (PK) of EMR has been extensively studied in earlier clinical trials. Accordingly, patients in this Phase 1 study were sampled at the end of the study to confirm that Emricasan pharmacokinetics was not altered in COVID-19 patients. Secondary endpoints included various clinical and laboratory measures and patient reported outcomes (PROs) using a COVID-19-related assessment tool.

[2] = in vivo; cited from earlier work

## CCO[C@@H]1OC(=O)C[C@@H]1NC(=O)[C@@H]1CCCN1C(=O)[C@@H](NC(=O)c1ccc(N)c(Cl)c1)C(C)(C)C [VX765]
caspase-1
  T-helper cell caspase-1 expression in COVID-19 samples: did not show a strong similar suppressive effect

## C[C@H](NC(=O)C(=O)Nc1ccccc1C(C)(C)C)C(=O)N[C@@H](CC(=O)O)C(=O)COc1c(F)c(F)cc(F)c1F [Emricasan, (3S)-3-{[(2S)-2-{[2-(2-tert-butylanilino)-2-oxoacetyl]amino}propanoyl]amino}-4-oxo-5-(2,3,5,6-tetrafluorophenoxy)pentanoic acid]
[1]
  "red ring" (contaminating RBC layer): decrease
Caspase 1
  samples with inhibition of nigericin-induced Caspase-1 activity: ⅓
caspase-1
  T-helper cell caspase-1 expression in COVID-19 samples: suppressed
  T-helper cell caspase-1 upregulation in healthy subjects: prevented its upregulation
caspase-3; COVID-19 plasma incubated samples
  caspase-3 up-regulation in RBCs: suppressed
caspase-3; influenza-plasma incubated samples
  baseline caspase-3 expression levels in RBCs: did not change
Mild COVID-19; 25 mg BID for 14 days
  serious adverse events: no reports of serious adverse events
Mild COVID-19; 25 mg BID for 14 days, 2 weeks of dosing and week 10 follow up, compared to placebo
  safety and tolerability: safe and well tolerated
Mild COVID-19; 25 mg BID for 14 days, at day 7, continued through Day 45, patients who completed treatment
  resolution of symptoms most commonly associated with mild COVID-19 (cough, headache, fatigue): complete resolution
Mild COVID-19; all subjects in the EMR treatment group
  caspase biomarkers: decreases
[2]
  safety and tolerance profile in humans: excellent safety and tolerance profile
